The values that follow come from patent publication EP2664619B1, “Purine derivatives as tools for screening anti-Alzheimer compounds” (Manros Therapeutics, priority 2012, dated 2013).

The structures appear in SMILES notation.

For orientation: EC50 means the concentration giving half of the maximal effect.

The test system of one data set is Aβ42 production. Description: Sandwich ELISA measurement of Aβ42 levels in supernatant of treated N2a-APP695 cells. The data set is classed as cell-based, Mouse. The settings on record: N2a-APP695 cells; for EC50: Mus musculus, 18h incubation, ELISA assay, read-out: EC50 (µM) at inducing Aβ42 production. How it is done: Mouse neuroblastoma cells (N2a cells) or N2a-APP695 cells (N2a cell line stably transfected with APP695, an amyloid precursor protein) were cultured in an essential medium composed of Dulbecco's minimal essential medium (DMEM) and of OptiMEM® (1:1, v/v) (Gibco®) containing 0.2 mg/mL Geniticin (Geneticin® Selective Antibiotic, Gibco®) and 5 % fetal bovine serum (FBS, Gibco®, EU approved origin) in a humidified, 5% CO2 incubator at 37°C. Routinely, cells were split without use of Trypsin every 4/5 days. They were first rinsed with PBS (Gibco) and detached from the plate bottom using 4 mL Versene (Gibco) at room temperature for 3-4 min. 8 mL of fresh medium were added to the cell suspension, and the mix was centrifuged for 3 min at 1,000 rpm. The cell pellet was resuspended in fresh medium before seeding (1/10 dilution) in new flasks.
The N2a-APP695 cells were seeded at 10.000 cells/well in a 96 well plate with modified media (0.5% FBS) and incubated overnight. Cells were treated with fresh media comprising different compounds according to the invention (equal quantity of DMSO sold by Sigma®). They were then incubated for 18h in a humidified, 5% CO2 incubator.
Purines according to the invention were added at various concentrations to N2a-APP695.
The plate was finally centrifuged to remove cell fragments before collecting supernatant samples for amyloids levels determination.
Then, Aβ38, Aβ40 and Aβ42 levels were measured in a sandwich ELISA (Enzyme-Linked ImmunoSorbent Assay) using a combination of monoclonal antibody 6E10 (mAb 6E10) (sold by Covance® under the reference SIG-39320) and biotinylated polyclonal Aβ38, Aβ40 or Aβ42 antibodies (provided by Dr. P.D. Mehta, IBR, Staten Island, USA).
A solution of 100 µl mAb 6E10 diluted in carbonate-bicarbonate buffer, pH 9.6, was coated in the wells of microtiter plates (Maxisorp™ sold by Nunc®) and incubated at 4°C overnight. The plates were then washed with PBST (PBS tablets sold by Gibco®) containing 0.05% Tween-20 (Sigma®), and blocked for 1 h with 1% BSA (Sigma®) in PBST (PBS tablets sold by Gibco®) containing 0.05 Tween-20 (Sigma®) to avoid nonspecific binding.
Following a washing step, samples were added and incubated for 2 hours at room temperature (RT) and then at 4°C overnight. Plates were then washed before incubation with biotinylated polyclonal antibody diluted in PBST (PBS tablets sold by Gibco®) containing 0.05 Tween-20 (Sigma®) + 0.5% BSA at room temperature for 75 minutes.
After a washing step, streptavidin-horseradish peroxidase conjugate (Streptavidin poly-HRP, Thermo Scientific Pierce®), diluted in PBS + 1% BSA, was added and incubation was carried out for 45 min at room temperature. After washing, 100 µl of o-phenylenediamine dihydrochloride (OPD tablets, Invitrogen®) diluted in citrate buffer pH 5.0 were added. The reaction was stopped after 15 min with the addition of 100 µl 1 N sulfuric acid.
A range of known concentrations of Aβ38, Aβ40 and Aβ42, ranging from 0.01 to 10 ng/mL for Aβ38 and Aβ42, and ranging from 0.001 to 10 ng/mL for Aβ40, were use as a reference scale to determine the concentrations of Aβ38, Aβ40 and Aβ42 obtained.
The optical density was finally measured at 490 nm in a microELISA reader (sold by BioTek Instrument, reference E1 800, Gen 5 software).
The EC50 of the molecules tested were thus calculated.
A general note: ELISA stands for enzyme-linked immunosorbent assay.

For another data set, the system named is N2a-APP695 cells. Description: MTS cell viability assay in the same wells as the ELISA. Particulars: MTS assay, N2a-APP695 cells; for Toxicity: class symbol; for Toxicity (concentration in brackets): concentration above which toxic. On the technique in general: Tetrazolium assays rely on reduction of a dye to a coloured formazan, in cell work by metabolically active cells.

`CC[C@H](CO)Nc1nc(N(C)Cc2ccccc2)c2ncn(Cc3ccccc3)c2n1` [Compound 17]: the 50% effective concentration (EC50) with Aβ42 production stood at 0.7 µM. In addition, in the data set on N2a-APP695 cells, the Toxicity entry is “+” and the “Toxicity (concentration in brackets)” value was greater than 12 µM.

Consider `CC[C@H](CO)Nc1nc(N(Cc2ccccc2)C(C)C)c2ncn(C(C)C)c2n1` [Compound 23, (2R)-2-[[6-[benzyl(isopropyl)amino]-9-isopropylpurin-2-yl]amino]butan-1-ol], for which the EC50 with Aβ42 production came out at 2.5 µM. Besides, in the data set with N2a-APP695 cells, the Toxicity entry is “+” and the “Toxicity (concentration in brackets)” value is recorded as greater than 12 µM.

Take `CC[C@H](CO)Nc1nc(N2CCc3ccccc32)c2ncn(C(C)C)c2n1` [Compound 19]: the EC50 with Aβ42 production came to 8 µM. For the same compound, in the data set with N2a-APP695 cells, the Toxicity result was “+” and the “Toxicity (concentration in brackets)” value is greater than 31 µM.

`CC(C)n1cnc2c(N(C)Cc3ccccc3)ncnc21` [Compound 9, N-benzyl-9-isopropyl-N-methyl-purin-6-amine]: the EC50 in the data set with Aβ42 production was 12 µM. Also, the Toxicity entry with N2a-APP695 cells is recorded as “- ("-" means that the tested compound is non toxic with a concentration higher than 100 µM)”.

Take `CC[C@H](CO)Nc1nc(N(CC)Cc2ccccc2)c2ncn(C(C)C)c2n1` [Compound 13]: the EC50 in the data set on Aβ42 production is 3.8 µM. Also, in the data set on N2a-APP695 cells, the Toxicity entry is “+” and the “Toxicity (concentration in brackets)” value is listed as greater than 31 µM.

On to `CC[C@H](CO)Nc1nc(N(CC)Cc2ccccc2)c2ncn(Cc3ccccc3)c2n1` [Compound 18], for which the EC50 with Aβ42 production was 1.3 µM. Besides, in the data set with N2a-APP695 cells, the Toxicity result is listed as “+” and the “Toxicity (concentration in brackets)” value is greater than 12 µM.

`CC(C)n1cnc2c(N(C)Cc3ccccc3)nc(N)nc21` [Aftin-1, N6-benzyl-9-isopropyl-N6-methyl-purine-2,6-diamine]: the concentration giving a half-maximal response (EC50) in the data set on Aβ42 production is 20 µM. In addition, the Toxicity result in the data set on N2a-APP695 cells is “+”.

Turning to `CC[C@@H](CO)Nc1nc(OCc2ccccc2)c2ncn(C(C)C)c2n1` [Compound 32], the EC50 in the data set with Aβ42 production stood at 21 µM. Also, the Toxicity entry in the data set on N2a-APP695 cells is reported as “- ("-" means that the tested compound is non toxic with a concentration higher than 100 µM)”.

With `CC(C)n1cnc2c(OCc3ccccc3)nc(OCc3ccccc3)nc21` [Compound 46, 9-Iso-propyl-2,6-dibenzyloxypurine], the EC50 in the data set on Aβ42 production came to 3.5 µM. In addition, in the data set on N2a-APP695 cells, the Toxicity result is given as “+” and the “Toxicity (concentration in brackets)” value was greater than 12 µM.

In the case of `CC[C@H](CO)Nc1nc(OCc2ccccc2)c2ncn(C(C)C)c2n1` [Aftin-3], the EC50 with Aβ42 production amounted to 13 µM. The Toxicity entry with N2a-APP695 cells is on record as “- ("-" means that the tested compound is non toxic with a concentration higher than 100 µM)”.

Consider `CC[C@H](CO)Nc1nc(NCc2ccccc2)c2ncn(C(C)C)c2n1` [Compound 2, reference compound], for which the Toxicity entry in the data set on N2a-APP695 cells is given as “- ("-" means that the tested compound is non toxic with a concentration higher than 100 µM)”.

For `CC[C@H](CO)Nc1nc(N(C)Cc2ccc(F)cc2)c2ncn(C(C)C)c2n1` [Compound 38], in the data set on Aβ42 production, the EC50 came to 55 µM. In the data set on N2a-APP695 cells, the Toxicity result is listed as “+” and the “Toxicity (concentration in brackets)” value is given as greater than 12 µM.

Regarding `CC[C@@H](CO)Nc1nc(N(C)Cc2ccc(-c3ccccn3)cc2)c2ncn(C(C)C)c2n1` [Compound 28], in the data set on Aβ42 production, the EC50 was found to be 2.8 µM. In addition, in the data set on N2a-APP695 cells, the Toxicity result is listed as “+” and the “Toxicity (concentration in brackets)” value was greater than 12 µM.

As for `CN(Cc1ccccc1)c1nc(N)nc2[nH]cnc12` [Compound 1, reference compound], in the data set on Aβ42 production, the EC50 stood at 100 µM. Moreover, in the data set with N2a-APP695 cells, the Toxicity result is on record as “- ("-" means that the tested compound is non toxic with a concentration higher than 100 µM)”.

Consider `CC[C@H](CO)Nc1nc(N(C)Cc2ccc(-c3ccccn3)cc2)c2ncn(C(C)C)c2n1` [Compound 16], for which the EC50 with Aβ42 production was 3.2 µM. Besides, in the data set with N2a-APP695 cells, the Toxicity result is “+” and the “Toxicity (concentration in brackets)” value is given as greater than 31 µM.

In the case of `CC[C@@H](CO)Nc1nc(N(C)Cc2ccc(F)cc2)c2ncn(C(C)C)c2n1` [Compound 37], the EC50 with Aβ42 production was determined as 52 µM. In addition, in the data set on N2a-APP695 cells, the Toxicity entry was “+” and the “Toxicity (concentration in brackets)” value is greater than 12 µM.

`CC[C@H](CO)Nc1nc(N(CC)c2ccccc2)c2ncn(C(C)C)c2n1` [Compound 42]: in the data set on Aβ42 production, the EC50 worked out at 25 µM. Moreover, in the data set with N2a-APP695 cells, the Toxicity entry is given as “+” and the “Toxicity (concentration in brackets)” value was greater than 100 µM.

`CC(C)n1cnc2c(N(C)c3ccccc3)nc(NCCO)nc21` [Compound 40]: in the data set on Aβ42 production, the EC50 was greater than 150 µM. Moreover, in the data set with N2a-APP695 cells, the Toxicity result is on record as “- ("-" means that the tested compound is non toxic with a concentration higher than 100 µM)”.

In the case of `CCC(CO)Nc1nc(N(C)c2ccc(F)cc2)c2ncn(C(C)C)c2n1` (centres unmarked) [Compound 34], in the data set on Aβ42 production, the EC50 came out at 30 µM. Further, in the data set on N2a-APP695 cells, the Toxicity result is on record as “- ("-" means that the tested compound is non toxic with a concentration higher than 100 µM)”.

Turning to `CCCN(Cc1ccccc1)c1nc(N[C@H](CC)CO)nc2c1ncn2C(C)C` [Compound 20], the EC50 with Aβ42 production is 1.35 µM. Further, in the data set on N2a-APP695 cells, the Toxicity entry is “+” and the “Toxicity (concentration in brackets)” value is on record as greater than 12 µM.

Take `CN(Cc1ccccc1)c1nc(N)nc2c1ncn2C1CCCC1` [Aftin-2, N6-Benzyl-9-cyclopentyl-N6-methyl-purine-2,6-diamine]: the EC50 in the data set with Aβ42 production worked out at 11 µM. Moreover, the Toxicity result in the data set on N2a-APP695 cells was “- ("-" means that the tested compound is non toxic with a concentration higher than 100 µM)”.

As to `CC[C@H](CO)Nc1nc(N(C)Cc2ccccc2)c2ncn(C3CCCC3)c2n1` [Compound 14], the EC50 in the data set with Aβ42 production turned out to be 2.7 µM. In addition, in the data set on N2a-APP695 cells, the Toxicity result is reported as “+” and the “Toxicity (concentration in brackets)” value is greater than 20 µM.

In the case of `CC(C)n1cnc2c(N(C)Cc3ccc(F)cc3)nc(NC3CCNCC3)nc21` [Compound 33], the EC50 in the data set with Aβ42 production is 10 µM. For the same compound, the “fold (printed in the EC50 cell)” value with Aβ42 production (Aβ42 production) was 2 fold. Moreover, in the data set with N2a-APP695 cells, the Toxicity entry is reported as “+” and the “Toxicity (concentration in brackets)” value is greater than 12 µM.

Consider `CC[C@H](CO)Nc1nc(N(C)Cc2cccc(OC)c2)c2ncn(C(C)C)c2n1` [Compound 36], for which the EC50 in the data set with Aβ42 production came to 105 µM. In addition, in the data set on N2a-APP695 cells, the Toxicity result is on record as “+” and the “Toxicity (concentration in brackets)” value was greater than 100 µM.

As for `CC[C@H](CO)Nc1nc(N(C)Cc2ccc(-c3ccccc3)cc2)c2ncn(C(C)C)c2n1` [Compound 21], the EC50 in the data set with Aβ42 production was 0.45 µM. In addition, the Toxicity result with N2a-APP695 cells is “+”.

Take `CC[C@H](CO)Nc1nc(N(C)Cc2ccccc2)c2ncn(C(C)C)c2n1` [Aftin-4, N6-methyl-roscovitine]: the EC50 with Aβ42 production is 10 µM. In the data set with N2a-APP695 cells, the Toxicity result was “+” and the “Toxicity (concentration in brackets)” value is reported as greater than 31 µM.

Take `CCN(CC)CCNc1nc(N(CC)Cc2ccccc2)c2ncn(C3CCCC3)c2n1` [Compound 22]: in the data set on Aβ42 production, the EC50 came out at 0.8 µM. In the data set with N2a-APP695 cells, the Toxicity result was “+” and the “Toxicity (concentration in brackets)” value is greater than 12 µM.

Regarding `CN(Cc1ccccc1)c1ncnc2c1ncn2C1CCCC1` [Compound 12], the EC50 with Aβ42 production worked out at 12 µM. Further, in the data set on N2a-APP695 cells, the Toxicity entry is given as “+” and the “Toxicity (concentration in brackets)” value is greater than 31 µM.

Turning to `CC[C@H](CO)Nc1nc(N2CCc3ccccc3C2)c2ncn(C(C)C)c2n1` [Compound 24], the EC50 with Aβ42 production came to 3.5 µM. In the data set with N2a-APP695 cells, the Toxicity entry was “+” and the “Toxicity (concentration in brackets)” value is recorded as greater than 31 µM.

For `CC(C)n1cnc2c(N(C)Cc3ccc(-c4ccccn4)cc3)nc(NC[C@H](O)CO)nc21` [Compound 29], in the data set with Aβ42 production, the EC50 stood at 10 µM. Moreover, the Toxicity entry in the data set with N2a-APP695 cells was “- ("-" means that the tested compound is non toxic with a concentration higher than 100 µM)”.

Consider `CC(C)n1cnc2c(N(C)c3ccccc3)nc(N(CCO)CCO)nc21` [Compound 39], for which, in the data set on Aβ42 production, the EC50 is greater than 150 µM.
